Like-named read-outs stand apart in the source and are kept apart here.
Key:
HIV-1 protease = target: T1, HIV-1 protease (Human immunodeficiency virus type 1 group M subtype B, UniProt P04585); assay: HIV-1 protease inhibition; type: biochemical, Human immunodeficiency virus 1; conditions: models such as those described by Pivazyan et al., Biochem. Pharma, 2000, 60, 927
T1 construct: Teach monomer is formed by 99 residues organized in β strands
From the text: The ability of a compound of the invention to act as an inhibitor of HIV-1 protease may be determined using pharmacological models which are well known to the art, such as tnose described by A. D. Pivazyan et al., Biochem. Pharma, 2000, 60, 927.

chymotrypsin = chymotrypsin (Bos taurus, UniProt P00766); conditions: pH 7.5; cited from earlier work
[1] = From the text: Furthermore, we attempted to separate the crude product on HPLC using a C18 reverse phase column and water/acetonitrile as the solvent. […] Using trifluoroacetic acid as part of the solvent mixture will acidify the media and might prevent decomposition.

Compound	inhibition of HIV-1 protease (HIV-1 protease)	Ki (chymotrypsin) [nM]	stability under HPLC conditions ([1]; C18 reverse phase column, water/acetonitrile, gradient separation, crude product)	stability in buffer solution ([1]; acidic and neutral media)	stability in buffer solution ([1]; basic conditions)
[( 1R)-1-(Ac-Ser-Leu-Asn)-2-phenylethyl]-B-methylene-L-proline amide borinic acid [Compound I28a]	inhibitors of HIV-1 protease	–	–	–	–
[(1R)-1-(Ac-Thr-Leu-Asn)-2-phenylethyl]-B-methylene-L-proline amide borinic acid [Compound I28b]	inhibitors of HIV-1 protease	–	–	–	–
CC(=O)N[C@@H](Cc1ccccc1)B(O)O	–	2100	–	–	–
CC(=O)N[C@@H](Cc1ccccc1)B(O)CN1CCC[C@H]1C(N)=O [Compound I24, [(1R)-(1-Acetamido-2-phenylethyl)]-B-methylene-L-proline amide borinic acid]	inhibitors of HIV-1 protease	–	unstable	stable	quickly decomposes
